# Like-named read-outs stand apart in the source and are kept apart here.
# B1: Neupogen: a granulocyte colony stimulator commonly used to treat chemotherapy-induced leukopenia (protein, chains of the INN, looked up)
# chain: MTPLGPASSLPQSFLLKCLEQVRKIQGDGAALQEKLCATYKLCHPEELVLLGHSLGIPWAPLSSCPSQALQLAGCLSQLHSGLFLYQGLLQALEGISPELGPTLDTLQLDVADFATTIWQQMEELGMAPALQPTQGAMPAFASAFQRRAGGVLVASHLQSFLEVSYRVLRHLAQP
# Tests used:
# [1] = levels of compound after oral (PO) or intravenous (IV) administration; assay type: in vivo; details: PO vs IV, FIG. 12
# From the text: FIG. 12 is a graph illustrating the levels of analog KZ-41 when provided orally (PO) or by intravenous administration (IV).
# Quinic acids are, however, catabolized by enzymes produced by gut bacteria. In rats, less than 10% of an orally-administered dose of quinic acid is recovered. The inventors therefore set out to produce quinic acid derivatives that retain or improve the beneficial effects of quinic acid, while being effective for oral administration. […] The compounds they have synthesized are not catabolized by bacterial enzymes, but are water-soluble, stable at room temperature, and effective for producing anti-inflammatory effects. […] These properties make the compounds attractive options for therapeutic use as anti-inflammatory agents.
# [2] = tested on: Gluconobacter oxydans membrane fraction (quinate dehydrogenase); assay: degradation by bacterial enzymes (Gluconobacter oxydans membrane fraction); assay type: in vitro ADME
# Method: FIG. 11 is a graph illustrating the results of an assay to compare stability of analog KZ-41 with that of quinic acid (QA) to degradation by bacterial enzymes. Percentage of drug remaining is shown on the Y-axis and the time exposed to the enzymes is shown on the X-axis. Results for quinic acid are indicated by the diamonds (♦) and results for KZ-41 are indicated by the squares (▪).
# Experiments involving Gluconobacter oxydans were performed as described by Adachi et al. (Adachi, O., et al., (2003) Biosci. Biotechnol. Biochem. 67: 2124-2131). […]
# Samples were evaporated to dryness at 30° C. and reconstituted with […] of 1:1 (v/v) mixture of 0.5% ammonia in water and acetonitrile. […] The spray needle voltage was set at 5,000 V, with the turbo gas temperature set at 400° C., and the declustering potential set at 60 V. For this study, samples were analyzed using a Q1 scan for product ion identification, a product ion scan for characterization of metabolites or enzymatic products and by using multiple-reaction monitoring (MRM) for quantitation of QA. Quantitation was performed using one set of MRM transitions: parent QA ions (MH^−/191)® selective daughter ions m/z 127. […] The peak areas, peak ratios, linear regression, assayed concentrations, and other quantitative analysis calculations were conducted Sciex Analyst 1.4 software. […]
# [3] = tested on: Gluconobacter oxydans membrane fraction (quinate dehydrogenase); details: three hours; previous results (Adachi et al. 2003); cited from earlier work
# [4] = rats, oral; cited from earlier work
# [5] = tested on: leukocyte populations; details: doxorubicin-induced leukopenia, rat; cited from earlier work
molecule,measurement,setting,value
"CCCNC(=O)C1(O)CC(O)C(O)C(O)C1 (stereo not drawn) [KZ-41, 1,3,4,5-tetrahydroxy-cyclohexane-carboxylic acid propylamide]","levels of compound, oral compared with intravenous (IV) administration",[1],available for absorption into the circulation
same,degradation by bacterial enzymes,[2]; enzymes produced by gut bacteria,not degraded
O=C(O)[C@]1(O)C[C@@H](O)[C@@H](O)[C@H](O)C1 [quinic acid],depletion of QA by G. oxydans membrane fraction,[3],complete depletion
same,degradation by bacterial enzymes,[2],degraded by enzymes produced by bacteria in the intestines
same,orally-administered dose recovered,[4],less than 10%
B1,effect on leukocyte populations,[5],increased only the neutrophil fraction
